The source of these data is the METLIN SMRT retention time set (Domingo-Almenara et al. 2019).

The nature of this data set: gradient 5% acetonitrile 3 min, to 50% in 2 min, to 85% in 15 min, held 3 min, 100 µL/min. The following applies: column: Zorbax Extend-C18 2.1 x 50 mm; eluents: water / acetonitrile, 0.1% formic acid. The gist of the method:
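Using water and acetonitrile that each contained 0.1% formic acid, mixtures of ~100 pure standards were separated at 100 μL/min on a Zorbax Extend-C18 column (2.1 × 50 mm, 1.8 μm). The HPLC fed a quadrupole time-of-flight mass spectrometer working in positive and negative ionization mode, with dead and dwell volumes of 40 μL and 900 μL. Data were acquired over 3 months. Retention time was read from computationally picked adduct peaks after manual inspection of each.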
In the case of `O=C(NCCc1c[nH]c2ccccc12)C1CCCN(c2ccc(-n3ccnc3)nn2)C1` (centres undefined), the RP-LC retention time stood at 568 s.
With `O=C(CCCc1ccccc1)Nc1cccn2c(C3CCC3)nnc12`, the RP-LC retention time came to 901 s.
`Cc1ccc(CNc2c(-c3ccc(C)cc3)nc3ncccn23)cc1` yielded an RP-LC retention time of 812 s.
As for `O=C(CSc1ccc(N2CCCC(C(=O)NC3CC3)C2)nn1)Nc1ccc(C(F)(F)F)cc1` (centres undefined), the RP-LC retention time came out at 729 s.
Under `O=C(Cc1ccc(Br)cc1)NC1CCN(c2cc(-c3ccc(F)cc3)[nH]n2)C1` (centres undefined) stands 780 s; under `Cc1ccn2c(Nc3ccc4c(c3)OCO4)c(-c3ccc(Cl)cc3)nc2c1`, 736 s.
In turn, `O=C(NCCn1ncccc1=O)C1(c2cccs2)CCCC1` returned an RP-LC retention time of 652 s.
Consider `CCn1ncc(CN(C)C(=O)C2CN(C(=O)c3ccccc3)CC23CCCCC3)c1C` (centres undefined), for which the RP-LC retention time stood at 774 s.
As for `Cc1ccc2nc(-c3ccccc3O)c(Nc3ccccc3C)n2c1`, the RP-LC retention time was determined as 751 s.
Consider `COc1ccc(C(O)CN2CCN(c3ncccn3)CC2)cc1OC` (centres undefined), for which the RP-LC retention time came out at 566 s.
In the case of `CCOc1ccc2nc(Nc3ncc4c(n3)CCCC4=O)nc(C)c2c1` it was 588 s.
Under `Cc1ccc(NC(=O)CN2C(=O)CCCc3cc(S(=O)(=O)N4CCCCC4)ccc32)cc1F` stands 953 s.
`O=C(O)CCC(=O)Nc1cccc(C(=O)O)c1`: the RP-LC retention time was 555 s.
In the case of `COCC1CN(Cc2cn[nH]c2-c2ccc(F)cc2)CCC1(F)F` (centres undefined) it was 619 s; in that of `O=C(CCC1CCCN(C(=O)Nc2ccccc2)C1)NCc1ccc(F)cc1F` (centres undefined), 816 s; in that of `O=c1c2cc3c(cc2nc(SCc2nc(-c4cccc(F)c4)no2)n1-c1ccc(F)cc1)OCO3`, 1170 s.
Compound `O=C(c1cc2ccccc2[nH]1)N1CCC(c2noc(C3CC3)n2)C1` (centres undefined) came in with an RP-LC retention time of 1440 s.
In the case of `COc1ccc(N2CCN(CCNC(=O)c3cccs3)CC2)cc1` it was 557 s; in that of `CCc1ccccc1NS(=O)(=O)c1cc(-c2[nH]ncc2C(=O)N2CCCC2)oc1C`, 749 s.
Compound `Cc1nc(-c2ccc3c(c2)CCN3C(=O)Cc2c[nH]c3ccccc23)cs1` came in with an RP-LC retention time of 950 s.
In turn, `Cc1cc(C)n(-c2ccnc(N3CCC(C(=O)N4CCCC4)CC3)n2)n1` yielded an RP-LC retention time of 739 s.
In the case of `CCOc1ccc(CN2C[C@@H](CO)[C@H](c3ccncc3)C2)cc1OCC` it was 556 s.
As for `O=S(=O)(c1ccc2c(c1)OCCO2)N1CCCn2nc(-c3cccnc3)cc2C1`, the RP-LC retention time worked out at 621 s.
For the compound `COc1ccc2cccc(NC(=O)c3ccsc3)c2n1`, the RP-LC retention time was found to be 1020 s.
In the case of `Cn1c(=O)c2c(-c3ccc(Cl)cc3)c(C#N)c(N)nc2n(C)c1=O` it was 814 s; in that of `CCN(C(=O)c1ccccc1Cl)c1nc(-c2ccccc2)cs1`, 1310 s; in that of `CC(C)S(=O)(=O)c1cccc(-c2nnc(N)o2)c1`, 589 s.
As to `Cc1ccc(-c2noc(C3CCCN3S(=O)(=O)c3cc(C)c(C)cc3C)n2)cc1` (centres undefined), the RP-LC retention time worked out at 1340 s.
In the case of `CN1C(=O)CCc2cc(NS(=O)(=O)c3ccc(Br)s3)ccc21` it was 801 s; in that of `CCOc1ccc2c(n1)CCN(C(=O)C1(c3ccccc3)CC1)C2`, 952 s; in that of `CCc1cccc(C)c1Nc1c(-c2ccccc2O)nc2ncccn12`, 907 s.
As for `O=C(NCC1CCCO1)c1cccn1Cc1noc(-c2ccc(Cl)cc2)n1` (centres undefined), the RP-LC retention time is 943 s.
In turn, `CC1CCN(C(=O)c2ccc3ncnc(N4CCCCC4)c3c2)CC1` returned an RP-LC retention time of 638 s.
`CC(NC(=O)CN1C(=O)CCn2nc(-c3cn(C)c4ccccc34)cc21)c1ccc2c(c1)OCCO2` (centres undefined) registered an RP-LC retention time of 797 s.
In the case of `N#CCCSc1ccccc1NC(=O)c1cc2cc([N+](=O)[O-])ccc2s1` it was 954 s.
Under `COc1ccc2oc(-c3csc(NC(=O)c4c(F)cccc4F)n3)cc2c1` stands 1010 s; under `c1ccc(Cc2nnc3sc(-c4ccc5ccccc5n4)nn23)cc1`, 1120 s; under `CCc1cccc(NC(=O)N2CCc3c(c(COc4ccccc4)nn3C)C2)c1`, 934 s.
Compound `COc1ccc(CC(=O)Nc2cccc(-c3ccc4nnc(-c5ccncc5)n4n3)c2)cc1` gave an RP-LC retention time of 624 s.
As for `O=C(CCNc1c(-c2ccc(F)cc2)nc2cnccn12)NCC1CC1`, the RP-LC retention time was 647 s.
On to `Cc1ccc(C)c(NS(=O)(=O)c2cc3c(s2)CCN(C(=O)C2CCC2)C3)c1`, for which the RP-LC retention time turned out to be 859 s.
`O=S(=O)(c1ccc(-c2noc(-c3cccc(F)c3)n2)cc1)N1CCOCC1`: the RP-LC retention time amounted to 1090 s.
For the compound `CC(C)CN(CC1CN(C(=O)COc2ccccc2)CCO1)C(=O)c1ccccc1` (centres undefined), the RP-LC retention time was 851 s.
On to `COc1ccc2[nH]c(=O)c(CCC(=O)NCCCN3CCCC(C)C3)cc2c1` (centres undefined), for which the RP-LC retention time stood at 585 s.
Under `Cc1ccc(NC(=O)Cn2nc3n(c2=O)CCCCC3)cc1F` stands 734 s.
With `O=C1CC(C(F)(F)F)c2c(c(C(=O)O)cn2-c2ccccc2Cl)N1` (centres undefined), the RP-LC retention time is 737 s.
Compound `CCOc1cc(CNC(=O)C2CCCN(C(=O)c3cc(C)cc(C)c3)C2)cc(OCC)c1OCC` (centres undefined) had an RP-LC retention time of 968 s.
The compound `Cc1nc(-c2csc(S(=O)(=O)N3CCCC(C(=O)NCCc4ccc(Cl)cc4)C3)c2)no1` (centres undefined) came in with an RP-LC retention time of 982 s.
In turn, `CCc1ccc(C2=C(C)C(N3CCCN(C(=O)C4CCCO4)CC3)=NS2(=O)=O)cc1` (centres undefined) came in with an RP-LC retention time of 778 s.
Under `COCCOc1nc(N)c2[nH]c(=O)n(Cc3ccccc3)c2n1` stands 676 s; under `Cc1cc(OCC(=O)Nc2ccc(C(C)C)cc2)nc(N2CCN(c3ccccc3)CC2)n1`, 981 s; under `CCn1cc(-c2nc(C)c(C(=O)Nc3ccc(C)cc3)s2)c2cccnc21`, 784 s.
Under `O=C(Cc1ccccc1)NCc1nc(-c2cccc(-c3ccn[nH]3)c2)no1` stands 898 s; under `CCN(CC)C(=O)c1cc(C)nc2c1c(=O)n(Cc1ccccc1)c(=O)n2C`, 884 s.
Under `O=C(NCCS(=O)(=O)N1CCc2ccccc2C1)C1CC(=O)N(c2ccc(F)cc2)C1` (centres undefined) stands 732 s; under `Cc1ccc2nc(C(=O)N3CCN(c4ccccn4)CC3)cn2c1`, 538 s; under `Cc1cc(-c2nnc(-c3ccccc3)o2)c(C)n1CC(=O)NCc1cccc(Cl)c1`, 973 s.
`CN(Cc1ccco1)C(=O)C1c2ccccc2CC(=O)N1Cc1ccccc1` (centres undefined) returned an RP-LC retention time of 861 s.
`CC(C)(C)CC(C)(C)n1nnnc1N`: the RP-LC retention time came out at 771 s.
For `CCn1c(C(=O)NCc2ccc3c(c2)OCO3)cc2c(-c3cccs3)nn(-c3ccccc3)c21`, the RP-LC retention time was determined as 1120 s.
Consider `COc1ccc(-c2csc(C)n2)cc1S(=O)(=O)N1CCc2ccccc2C1`, for which the RP-LC retention time was 970 s.
Compound `CCn1cc(-c2ccc(OC)cc2)cc1C(=O)O` came in with an RP-LC retention time of 825 s.
In the case of `CCc1noc(NC(C)=O)c1-c1ccc(C)c(S(=O)(=O)Nc2ccccc2)c1` it was 719 s; in that of `Cc1ccc(C)c(NC(=O)Cn2nc3n(c2=O)CCCC3)c1`, 708 s; in that of `COC(=O)c1ccc(Cl)cc1NC(=O)N1CCc2nc[nH]c2C1`, 644 s.
`Cc1cc(C)cc(NC(=O)Cn2nc(N3CCCC3)c3ccccc3c2=O)c1` displayed an RP-LC retention time of 1010 s.
`COc1ccc(Cl)cc1NC(=O)C1CCCN1S(=O)(=O)c1cc2c(cc1C)NC(=O)C(C)O2` (centres undefined) registered an RP-LC retention time of 909 s.
In the case of `Cc1nn(-c2nc3ccccc3[nH]2)c2c1C(=O)CC(c1ccccc1)C2` (centres undefined) it was 990 s; in that of `COc1ccccc1NC(=O)Cn1nc(N2CCOCC2)c2ccccc2c1=O`, 819 s.
On to `Cc1nn(-c2ccc(C(=O)NCc3cccs3)cc2)c2c1C(=O)CC(C)(C)C2`, for which the RP-LC retention time is 841 s.
In the case of `Cc1cccc(Cn2c(CN3CCC(C(=O)NC4CCCCCCC4)CC3)cc3ccccc32)c1` it was 936 s.
Compound `CCC(CN(C)Cc1ccccc1)NC(=O)CSc1nc2ccccc2n(C)c1=O` (centres undefined) gave an RP-LC retention time of 653 s.
The compound `CSc1ccc(-c2nc3cnccn3c2Nc2ccc(C(N)=O)cc2)cc1` gave an RP-LC retention time of 658 s.
In the case of `Cc1ccc(C)c(NS(=O)(=O)c2cc(-c3cc(C(F)(F)F)on3)sc2C)c1` it was 1320 s; in that of `CC(C)(C)C(=O)Nc1ccc(C(=O)NCCNC(=O)Nc2ccccc2Cl)cc1`, 738 s.
In the case of `Cc1nnc2c(=O)n(CC(=O)NC(C)c3ccccc3)c3cccnc3n12` (centres undefined), the RP-LC retention time was determined as 988 s.
As to `O=C(CN1CC=C(c2cnn(-c3ccc(F)cc3)c2)CC1)N1CCN(c2ccccc2F)CC1`, the RP-LC retention time was found to be 748 s.
Compound `CN1CCN(c2ccc(CNC(=O)C3CCCN(c4nccnc4Oc4ccccc4)C3)cc2)CC1` (centres undefined) had an RP-LC retention time of 664 s.
Under `Cc1nn(-c2nc(-c3ccc(Cl)cc3)cs2)c(C)c1CC(=O)N1CCc2ccccc2C1` stands 1330 s.
